Series [1] in a line: Oral bioavailability in CD-1 mouse at 10 mg/kg by LC-MS/MS method. The class given is ADME, organism-based. The note with it: in vivo.
Series [2] in a line: Plasma concentration in CD-1 mouse at 10 mg/kg, po after 1 hr by LC-MS/MS method. The class given is ADME, organism-based.
Another series concerns NCI-H460. In words: Cytotoxicity against human NCI-H460 cells assessed as growth inhibition using low folate media after 7 days by Alamar blue assay. The class given is functional. The note with it: NCI-H460, 168 h. On the technique in general: Resazurin is reduced to fluorescent resorufin, in cell work by metabolically active cells.
Series [3] concerns Mus musculus. As to the kind of experiment: Unbound AUC in CD-1 mouse at 10 mg/kg, po by LC-MS/MS method. The format is ADME, organism-based. The note with it: in vivo.
The subject of series [4] is Mus musculus. In words: In vivo inhibition of AICARFT in tumor of low folate diet fed nude mouse xenografted with human NCI-H460 cells assessed as increase in intratumoral ZMP levels at 0.3 to 30 mg/kg after 4 hrs relative to vehicle-treated control. The format is functional.
The test system of series [5] is Mus musculus. As to the kind of experiment: In vivo inhibition of AICARFT in tumor of low folate diet fed nude mouse xenografted with human NCI-H460 cells assessed as increase in circulating AICAr levels at 0.3 to 30 mg/kg after 4 hrs relative to vehicle-treated control. The format is functional. (A xenograft is tissue or cells of one species grown in another, often human tumour cells in immunodeficient mice.)

The target in series [6] is T1, Bifunctional methylenetetrahydrofolate dehydrogenase/cyclohydrolase, mitochondrial (Homo sapiens, UniProt P13995).
T1 sequence (P13995 whole entry): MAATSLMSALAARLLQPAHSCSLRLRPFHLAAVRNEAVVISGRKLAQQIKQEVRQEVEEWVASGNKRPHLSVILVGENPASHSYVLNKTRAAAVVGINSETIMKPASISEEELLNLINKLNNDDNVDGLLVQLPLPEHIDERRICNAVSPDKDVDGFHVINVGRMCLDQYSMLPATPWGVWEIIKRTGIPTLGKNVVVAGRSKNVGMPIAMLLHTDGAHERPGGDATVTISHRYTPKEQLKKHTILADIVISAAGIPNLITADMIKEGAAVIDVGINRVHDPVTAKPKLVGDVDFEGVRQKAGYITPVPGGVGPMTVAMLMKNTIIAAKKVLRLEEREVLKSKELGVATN
In words: Inhibition of MTHFD2 (unknown origin) using NAD/5,10-methylene THF as substrate after 30 mins by HPLC method.

The nature of series [7]: Drug metabolism in microsomes (unknown origin). The note with it: read-out: Drug metabolism. The class given is ADME, Microsome.
In a further series the target is CYP2D6 (Homo sapiens, UniProt P10635). In words: Inhibition of human CYP2D6 at 10 uM relative to control. The format is ADME.
Chain of CYP2D6 (P10635 whole entry): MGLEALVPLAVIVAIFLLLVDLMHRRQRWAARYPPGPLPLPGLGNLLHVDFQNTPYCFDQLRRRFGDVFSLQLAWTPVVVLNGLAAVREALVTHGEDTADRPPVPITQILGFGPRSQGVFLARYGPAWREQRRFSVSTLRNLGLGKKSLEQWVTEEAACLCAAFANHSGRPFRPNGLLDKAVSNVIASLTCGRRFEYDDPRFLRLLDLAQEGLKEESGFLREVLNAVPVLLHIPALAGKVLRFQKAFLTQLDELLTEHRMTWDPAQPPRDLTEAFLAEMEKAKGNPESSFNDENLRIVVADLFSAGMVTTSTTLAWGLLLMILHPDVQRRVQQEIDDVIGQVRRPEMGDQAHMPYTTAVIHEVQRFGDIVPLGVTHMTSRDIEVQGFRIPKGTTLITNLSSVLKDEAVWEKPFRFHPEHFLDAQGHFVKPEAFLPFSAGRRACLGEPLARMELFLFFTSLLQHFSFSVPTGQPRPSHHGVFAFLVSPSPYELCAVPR
The nature of series [8]: Antitumor activity against human MDA-MB-231met2 cells xenografted in athymic nude mouse assessed as tumor volume at 60 mg/kg, bid administered via oral gavage for 22 days relative to control. The format is functional.
Series [9] concerns Mus musculus. As to the kind of experiment: Toxicity in athymic nude mouse xenografted with human MDA-MB-231met2 cells assessed as mortality at 30 to 60 mg/kg, bid administered via oral gavage for 22 days. The format is organism-based. The note with it: in vivo, 528 h.
Series [10] concerns Mus musculus. In words: In vivo inhibition of AICARFT in tumor of athymic nude mouse xenografted with human MDA-MB-231met2 cells assessed as increase in AICAr levels at 60 mg/kg, bid administered via oral gavage for 22 days relative to control. The format is functional.
The next series relates to MDA-MB-231met2. In words: Antitumor activity against human MDA-MB-231met2 cells xenografted in athymic nude mouse assessed as tumor growth inhibition administered as bid via oral gavage for 22 days. The class given is functional, cell-based.

The values below come from ChEMBL document CHEMBL4020815 (J Med Chem, 2017).

By bioavailability is commonly meant dose-corrected exposure relative to a reference, in per cent. Low values mean little systemic uptake, high ones much systemic uptake. As a reminder, the GI50 is the concentration at which growth is held to half of that of the control. As usually defined, the IC50 is the concentration needed to halve the response being measured. The low end stands for greater potency, the high end for weaker potency. By inhibition is commonly meant the change of the read-out against control, counted positive when it falls. Lower therefore signals a response near the control. In turn, `O=c1[nH]ccc2cc(F)c(NS(=O)(=O)c3ccc(N4CC[C@@H](O)C4)s3)cc12` registered a bioavailability in series [1] of 25%. This compound also gave a concentration at 1 h in series [2] of 8.5 µM. Also, the GI50 in the series on NCI-H460 stood at 25 nM. The compound also gave a fAUC with Mus musculus [3] of 1.279 µM·h. The “fold change (FC)” value was over 100 in the series on Mus musculus [4], 80 in the series on Mus musculus [5] and 3 with Mus musculus [10]. This compound yielded an IC50 in series [6] of over 100000 nM. For the same compound, in [7], the metabolised was under 10%. At CYP2D6, the inhibition at 10 µM was under 10%. The Activity in series [8] is given as -1%; in the series with Mus musculus [9], “Non-Toxic”. Also, in the series with MDA-MB-231met2, the TGI entry was “Dose-dependent effect”.
